# Data as given in patent US12304899B2, “Factor XI activation inhibitors” (Merck Sharp & Dohme LLC, priority 2019, dated 2025).
# Molecular target: T1, Human coagulation factor (F)XI (Homo sapiens, UniProt P03951)
# T1 construct: purchased Haematologic Technologies Inc. (FXI); Enzyme Research Laboratories (FXIIa) HCXI-150 (FXI); HFXIIa (FXIIa)
# Test: Inhibition of FXIIa mediated activation of FXI (activation of human Factor XI to XIa by human Factor α-XIIa)
# Assay type: biochemical
# Details: human FXI pre-incubated with compound 30 min at 22° C., activation by human FXIIa 60 min, z-GPR-AFC substrate fluorescence, 4 parameter logistic fit; read-out: Inhibition of FXIIa meditated activation of FXI
# Procedure: Inhibition of FXIIa Mediated Activation of FXI
# Activation of Human Factor XI to XIa by Human Factor α-XIIa
# The assay was performed in 50 mM HEPES, 150 mM NaCl, 5 mM CaCl2, 0.1% PEG-8000, pH 7.4 buffer in black, flat-bottom, polystyrene microplates (Corning, Cat #3573). Serial dilutions (10-point, 3.333-fold) of the test compounds delivered as 10 mM DMSO stocks were prepared in the Labcyte Echo-qualified PP 384 well microplates (Labcyte, Cat #P-05525). Human coagulation factor (F)XI (Haematologic Technologies Inc., Cat #HCXI-150, concentration 46 nM, 19.5 uL) was pre-incubated with 0.5 uL of the test compounds for 30 min at 22° C. The activation was initiated by addition of 10 uL of human coagulation factor (F)XIIa (Enzyme Research Laboratories, Cat #HFXIIa, concentration 30 nM) and the reaction proceeded for 60 min at 22° C., after which it was quenched by addition of a selective inhibitor of FXIIa (Compound 54 in International Patent Publication WO2018093695) concentration 600 uM in DMSO, 1 uL). 10 min after the quench, 29 uL of z-GPR-AFC substrate (Sigma, Cat #C0980-10 MG, concentration 200 uM) was added into each well and the detection reaction proceeded for 60 min at 22° C. Fluorescence at 405/510 nm was measured in end-point mode using an Envision plate-reader (Perkin Elmer). IDBS Activity Base XE (ABase) analysis using 4 parameter logistic fit was performed to determine Minimum, Maximum, EC50, and Slope Factor for each compound.
# T1 sequence (P03951 19-625): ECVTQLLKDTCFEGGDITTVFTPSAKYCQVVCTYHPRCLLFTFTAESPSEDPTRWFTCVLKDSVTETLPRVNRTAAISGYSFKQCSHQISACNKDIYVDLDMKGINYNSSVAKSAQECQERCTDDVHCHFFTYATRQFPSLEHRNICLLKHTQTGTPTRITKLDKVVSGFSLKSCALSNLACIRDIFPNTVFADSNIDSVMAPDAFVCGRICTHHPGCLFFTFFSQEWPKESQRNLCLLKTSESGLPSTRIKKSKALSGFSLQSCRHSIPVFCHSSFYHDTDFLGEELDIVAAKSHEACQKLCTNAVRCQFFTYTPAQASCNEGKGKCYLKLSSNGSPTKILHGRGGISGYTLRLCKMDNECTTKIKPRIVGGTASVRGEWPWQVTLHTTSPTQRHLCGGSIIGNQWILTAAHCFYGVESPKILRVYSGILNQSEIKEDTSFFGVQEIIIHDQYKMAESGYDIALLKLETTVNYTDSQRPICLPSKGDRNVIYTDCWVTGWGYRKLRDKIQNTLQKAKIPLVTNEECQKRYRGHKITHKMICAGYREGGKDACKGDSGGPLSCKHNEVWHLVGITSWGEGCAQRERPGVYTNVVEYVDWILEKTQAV
row,EC50,SMILES
1,31.8 nM,"Cc1c(COc2ccc3nc(C(=O)N4CCC(C)(O)C4)cc(C(=O)N4CCCCC4)c3c2)ccc2c1COC2=O (single isomer, unassigned) [Example 5a, 5-(((2-(3-hydroxy-3-methylpyrrolidine-1-carbonyl)-4-(piperidine-1-carbonyl)quinolin-6-yl)oxy)methyl)-4-methylisobenzofuran-1(3H)-one]"
2,38.8 nM,"Cc1c(COc2ccc3nc(C(=O)N4CCC(C)(O)C4)cc(C(=O)N4CCCCC4)c3c2)ccc2c1COC2=O (single isomer, unassigned) [Example 5b, 5-(((2-(3-hydroxy-3-methylpyrrolidine-1-carbonyl)-4-(piperidine-1-carbonyl)quinolin-6-yl)oxy)methyl)-4-methylisobenzofuran-1(3H)-one]"
3,21.8 nM,"Cc1c(COc2ccc3nc(C(=O)N4CCC(C#N)(n5cccn5)CC4)cc(C(=O)N4CCCCC4)c3c2)ccc2c1COC2=O [Example 1, 1-(6-((4-methyl-1-oxo-1,3-dihydroisobenzofuran-5-yl)methoxy)-4-(piperidine-1-carbonyl)quinoline-2-carbonyl)-4-(1H-pyrazol-1-yl)piperidine-4-carbonitrile]"
4,39.6 nM,"N#Cc1ccc(COc2ccc3nc(C(=O)N4CCC(n5cccn5)CC4)cc(C(=O)N4CCCCC4)c3c2)cc1 [Example 9, 4-(((2-(4-(1H-pyrazol-1-yl)-piperidine-1-carbonyl)-4-(piperidine-1-carbonyl)-quinolin-6-yl)oxy)methyl) benzonitrile]"
5,20 nM,"N#Cc1ccc(COc2ccc3nc(C(=O)N4CCC(n5cccn5)CC4)cc(C(=O)N4CCCCC4)c3c2)cc1F [Example 13, 4-(((2-(4-(1H-pyrazol-1-yl)-piperidine-1-carbonyl)-4-(piperidine-1-carbonyl)-quinolin-6-yl)oxy)methyl)-2-fluorobenzonitrile]"
6,14.7 nM,"O=C(c1cc(C(=O)N2CCCCC2)c2cc(OCc3ccc4nonc4c3)ccc2n1)N1CCC(n2cccn2)CC1 [Example 14, (4-(1H-pyrazol-1-yl)piperidin-1-yl)(6-(benzo[c][1,2,5]-oxadiazol-5-ylmethoxy)-4-(piperidine-1-carbonyl)-quinolin-2-yl)methanone]"
7,32.9 nM,"N#Cc1ccc(COc2ccc3nc(C(=O)N4CCC(n5cccn5)CC4)cc(C(=O)N4CCCCC4)c3c2)c(F)c1 [Example 16, 4-(((2-(4-(1H-pyrazol-1-yl)-piperidine-1-carbonyl)-4-(piperidine-1-carbonyl)-quinolin-6-yl)oxy)methyl)-3-fluorobenzonitrile]"
8,50.8 nM,"Cn1ncc2cc(COc3ccc4nc(C(=O)N5CCC(n6cccn6)CC5)cc(C(=O)N5CCCCC5)c4c3)ccc21 [Example 17, (4-(1H-pyrazol-1-yl)piperidin-1-yl)(6-((1-methyl-1H-indazol-5-yl)methoxy)-4-(piperidine-1-carbonyl)quinolin-2-yl) methanone]"
9,21.9 nM,"Cc1c(COc2ccc3nc(C(=O)N4CCC(n5cccn5)CC4)cc(C(=O)N4CCCCC4)c3c2)ccc2c1COC2=O [Example 18, 5-(((2-(4-(1H-pyrazol-1-yl)-piperidine-1-carbonyl)-4-(piperidine-1-carbonyl)-quinolin-6-yl)oxy)methyl)-4-methylisobenzofuran-1(3H)-one]"
10,31.6 nM,"O=C1OCc2cc(COc3ccc4nc(C(=O)N5CCC(n6cccn6)CC5)cc(C(=O)N5CCCCC5)c4c3)ccc21 [Example 19, 5-(((2-(4-(1H-pyrazol-1-yl)-piperidine-1-carbonyl)-4-(piperidine-1-carbonyl)-quinolin-6-yl)oxy)methyl)-isobenzofuran-1(3H)-one]"

# Second part, the compound before the results:
row,SMILES,EC50
1,"CC1(O)CCN(C(=O)c2cc(C(=O)N3CCCCC3)c3cc(OCc4ccc5c(c4Cl)COC5=O)ccc3n2)C1 (racemic) [Example 4, rac-4-chloro-5-(((2-(3-hydroxy-3-methylpyrrolidine-1-carbonyl)-4-(piperidine-1-carbonyl)quinolin-6-yl)oxy)methyl)isobenzofuran-1(3H)-one]",9.6 nM
2,"N#CC1(n2cccn2)CCN(C(=O)c2cc(C(=O)N3CCCCC3)c3cc(OCc4ncc(C(F)(F)F)cc4Cl)ccc3n2)CC1 [Example 2, 1-(6-((3-chloro-5-(trifluoro-methyl)pyridin-2-yl)meth-oxy)-4-(piperidine-1-carbon-yl)quinoline-2-carbonyl)-4-(1H-pyrazol-1-yl)piperidine-4-carbonitrile]",32.2 nM
3,"Cc1c(COc2ccc3nc(C(=O)N4CCC(C#N)(c5ccccc5)CC4)cc(C(=O)N(C)C)c3c2)ccc2c1COC2=O [Example 3, 2-(4-cyano-4-phenylpiperidine-1-carbonyl)-N,N-dimethyl-6-((4-methyl-1-oxo-1,3-dihydroisobenzofuran-5-yl)methoxy)quinoline-4-carboxamide]",39.6 nM
4,"O=C(c1cc(C(=O)N2CCCCC2)c2cc(OCc3ccc4nnsc4c3)ccc2n1)N1CCC(n2cccn2)CC1 [Example 6, (4-(1H-pyrazol-1-yl)piperidin-1-yl)(6-(benzo[d][1,2,3]thiadiazol-6-ylmethoxy)-4-(piperidine-1-carbonyl)quinolin-2-yl)methanone]",49.2 nM
5,"O=C(c1cc(C(=O)N2CCCCC2)c2cc(OCc3ccc4snnc4c3)ccc2n1)N1CCC(n2cccn2)CC1 [Example 7, (4-(1H-pyrazol-1-yl)piperidin-1-yl)(6-(benzo[d][1,2,3]thiadiazol-5-ylmethoxy)-4-(piperidine-1-carbonyl)quinolin-2-yl)methanone]",19.5 nM
6,"O=C(c1cc(C(=O)N2CCCCC2)c2cc(OCCCc3cccnc3)ccc2n1)N1CCC(n2cccn2)CC1 [Example 8, (4-(1H-pyrazol-1-yl)piperidin-1-yl)(4-(piperidine-1-carbon-yl)-6-(3-(pyridin-3-yl)pro-poxy)quinolin-2-yl)methanone]",18.8 nM
7,"O=C(c1cc(C(=O)N2CCCCC2)c2cc(OCc3ccc(C(F)(F)F)nc3)ccc2n1)N1CCC(n2cccn2)CC1 [Example 10, (4-(1H-pyrazol-1-yl)piperidin-1-yl)(4-(piperidine-1-carbon-yl)-6-((6-(trifluoromethyl)-pyridin-3-yl)methoxy)-quinolin-2-yl)methanone]",21.8 nM
8,"O=C(c1cc(C(=O)N2CCCCC2)c2cc(OCc3cn4c(F)cccc4n3)ccc2n1)N1CCC(n2cccn2)CC1 [Example 11, (4-(1H-pyrazol-1-yl)piperidin-1-yl)(6-((5-fluoroimidazo[1,2-a]pyridin-2-yl)methoxy)-4-(piperidine-1-carbonyl)-quinolin-2-yl)methanone]",35.1 nM
9,"O=C(c1cc(C(=O)N2CCCCC2)c2cc(OCc3ncc(C(F)(F)F)cc3Cl)ccc2n1)N1CCC(n2cccn2)CC1 [Example 12, (4-(1H-pyrazol-1-yl)piperidin-1-yl)(6-((3-chloro-5-(trifluoro-methyl)pyridin-2-yl)methoxy)-4-(piperidine-1-carbonyl)-quinolin-2-yl)methanone]",16.8 nM
10,"Cn1nnc2cc(COc3ccc4nc(C(=O)N5CCC(n6cccn6)CC5)cc(C(=O)N5CCCCC5)c4c3)ccc21 [Example 15, (4-(1H-pyrazol-1-yl)piperidin-1-yl)(6-((1-methyl-1H-benzo-[d][1,2,3]triazol-5-yl)methoxy)-4-(piperidine-1-carbonyl)-quinolin-2-yl)methanone]",23.7 nM
